Patent US5264429A, “2-spirocyclopropyl cephalosporin sulfone derivatives” (SynPhar Laboratories, Inc., priority 1991, dated 1993)
Like-named read-outs stand apart in the source and are kept apart here.

What was measured:
Format in all cases: biochemical
[1] = biological target: T1, human leukocyte elastase (HLE) (Homo sapiens, UniProt P08246); assay: Enzyme Assay for Inhibition of HLE; details: HLE 10 nM, pH 7.6, 10 minute preincubation, 30° C.
T1 construct: from tissue; host or cells: human white blood cells
T1 sequence (P08246 30-247 limits assumed): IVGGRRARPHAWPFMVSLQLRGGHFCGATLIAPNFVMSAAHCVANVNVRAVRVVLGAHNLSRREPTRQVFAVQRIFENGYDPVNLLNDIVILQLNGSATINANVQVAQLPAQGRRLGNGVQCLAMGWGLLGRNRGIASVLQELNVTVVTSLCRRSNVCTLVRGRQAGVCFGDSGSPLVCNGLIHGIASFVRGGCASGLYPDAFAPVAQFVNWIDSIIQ
Procedure: Enzyme Assay for Inhibition of HLE:
Enzyme: Purified elastase from human white blood cells.
Substrate: MeO-succinyl-L-alanyl-L-alanyl-L-prolyl-L-valine-p-nitro-anilide(NA).
Reaction Mixture: 10 mM phosphate buffer (pH 7.6), 500 mM NaCl, 10% dimethylsulfoxide (DMSO), 0.35 mM substrate.
The enzyme activity was determined by monitoring the increase in absorbance at 410 nm caused by the hydrolysis of chromogenic substrates. Inhibition of enzyme by the compounds described were determined after a 10 minute preincubation with the enzyme in reaction mixture minus substrate. Reaction was initiated by the addition of substrate. The concentration of human leukocyte elastase used for assay was at 10 nM.
HLE, CTG, PPE and CTD were tested at 30° C. and the others were […]

[2] = biological target: T2, thrombin (Homo sapiens, UniProt P00734); assay: Inhibition of thrombin (THR); details: pH 8.6, 10 minute preincubation, 22° C.
T2 construct: from tissue; host or cells: human plasma
Procedure: HLE, CTG, PPE and CTD were tested at 30° C. and the others were
TRY, trypsin; THR, thrombin; PTH, plasmin; CTC, cathepsin C; ATM,
Enzyme: Purified thrombin from human plasma
Substrate: Tosyl-glycyl-L-prolyl-L-arginine-p-NA acetate
Reaction mixture: 50 mM Tricine-NaOH buffer (pH 8.6), 500 mM NaCl, 0.1% Polyethyleneglycol 8000, 10% DMSO, 0.5 mM Substrate.
Except for Cathepsin D, the enzyme activities were determined by monitoring the increase in absorbance at 410 nm caused by the hydrolysis of chromogenic substrates. The activity of Cathepsin D was determined by monitoring the absorbance of 5% trichloroacetic acid-soluble material at 280 nm.
Inhibition of enzymes by the compounds described were determined after a 10 minute preincubation with enzymes in reaction mixtures minus substrate. Reactions were initiated by the addition of substrates. The concentration used for assays were porcine pancreatic elastase at 240 nM and human Cathepsin G at 50 nM. Cathepsin D was used at the concentration that produced approximately 0.15 O.D. increase per 20 min at 280 nm under the standard conditions. All other proteases were assayed at the concentrations that produced approximately 0.1 O.D. change per minute at 410 nm under the standard conditions.

[3] = biological target: T3, cathepsin G (Homo sapiens, UniProt P08311); assay: Inhibition of cathepsin G (CTG)
T3 construct: from tissue; host or cells: human white blood cells
T3 sequence (P08311 21-244 limits assumed): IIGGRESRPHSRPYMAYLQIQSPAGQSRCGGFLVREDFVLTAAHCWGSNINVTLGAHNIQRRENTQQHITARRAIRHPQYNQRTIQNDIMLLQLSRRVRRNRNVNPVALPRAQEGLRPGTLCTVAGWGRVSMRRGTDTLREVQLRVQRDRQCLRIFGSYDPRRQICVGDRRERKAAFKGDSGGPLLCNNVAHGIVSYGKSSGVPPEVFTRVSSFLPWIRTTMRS
Procedure: Enzyme: Purified Cathepsin G from human white blood cells
Substrate: N-succinyl-L-alanyl-L-alanyl-L-phenylalanyl-L-phenylalanine -p-NA.
Reaction mixture: 10 mM Phosphate buffer (pH 7.5), 500 mM NaCl, 10% DMSO, 2.0 mM Substrate.

[4] = cathepsin G 50 nM, pH 7.5, 10 minute preincubation, 30° C., read-out: IC50 CTG (converted)

Row | SMILES | IC50 [1] [µM] | IC50 [2] [µM] | IC50 [3, 4] [µM] | IC50 [3] [µM]
1 | CC1=C(C(=O)OC(c2ccccc2)c2ccccc2)N2C(=O)[C@H](Cl)[C@H]2S(=O)(=O)C12CC2(c1ccccc1)c1ccccc1 (single isomer, unassigned) [Example 1, Benzhydryl 7α-chloro-2-spiro(2',2'-diphenyl) cyclopropyl-3-methyl-3-cephem-4-carboxylate-1,1-dioxide] | 0.00475 | > 40 | 20 | –
2 | CC1=C(C(=O)OC(c2ccccc2)c2ccccc2)N2C(=O)[C@H](Br)[C@H]2S(=O)(=O)C12CC2(c1ccccc1)c1ccccc1 (single isomer, unassigned) [Example 2, benzhydryl 7α-bromo-2-spiro(2', 2'-diphenyl) cyclopropyl-3-methyl-3-cephem-4-carboxylate-1,1-dioxide] | 0.0336 | > 40 | > 16.2 | –
3 | CC1=C(C(=O)OC(c2ccccc2)c2ccccc2)N2C(=O)[C@H](Br)[C@H]2S(=O)(=O)C12CC2(c1ccc(Cl)cc1)c1ccc(Cl)cc1 (single isomer, unassigned) [Example 12, Benzhydryl 7α-bromo-2-spiro [2',2'-(4',4'-dichloro)diphenyl]cyclopropyl-3-methyl-3-cephem-4-carboxylate-1,1-dioxide] | 0.0101 | > 55.3 | 19.4 | –
4 | CC1=C(C(=O)OC(c2ccccc2)c2ccccc2)N2C(=O)[C@H](Br)[C@H]2S(=O)(=O)C12CC2(c1ccc(F)cc1)c1ccc(F)cc1 (single isomer, unassigned) [Example 13, Benzhydryl 7α-bromo-2-spiro[2',2'-(4',4'-difluoro)diphenyl] cyclopropyl-3-methyl-3-cephem-4-carboxylate-1,1-dioxide] | 0.00507 | > 40 | 19 | –
5 | CC1=C(C(=O)OC(C)(C)C)N2C(=O)[C@H](Br)[C@H]2S(=O)(=O)C12CC2(c1ccccc1)c1ccccc1 (stereo partly drawn) [Example 3, t-Butyl 7α-bromo-2-spiro(2',2'-diphenyl) cyclopropyl-3-methyl-3-cephem 4-carboxylate-1,1-dioxide] | 0.00496 | > 41.9 | 40 | –
6 | CC1=C(C(=O)N2CCCC2)N2C(=O)[C@H](Br)[C@H]2S(=O)(=O)C12CC2(c1ccccc1)c1ccccc1 (stereo partly drawn) [Example 6, 7α Bromo-2-spiro(2',2'-diphenyl)cyclopropyl-3-methyl-3-cephem-4-pyrrolidine carboxamide-1,1-dioxide] | 0.0107 | > 39 | > 39 | –
7 | CCO[C@H]1C(=O)N2C(C(=O)OCC(Cl)(Cl)Cl)=C(C)C3(CC3(c3ccccc3)c3ccccc3)S(=O)(=O)[C@H]12 (stereo partly drawn) [Example 7, 2,2,2-Trichloroethyl-7α-ethoxy-2-spiro(2',2'-diphenyl)cyclo-propyl-3-methyl-3-cephem-4-carboxylate-1,1-dioxide] | 0.00547 | > 10 | 0.32 | –
8 | CO[C@H]1C(=O)N2C(C(=O)OCC(Cl)(Cl)Cl)=C(C)C3(CC3(c3ccccc3)c3ccccc3)S(=O)(=O)[C@H]12 (stereo partly drawn) [Example 8, 2,2,2-Trichloroethyl-7α-methoxy-2-spiro(2',2'-diphenyl) cyclopropyl-3-methyl-3-cephem-4-carboxylate-1,1-dioxide] | 0.00438 | > 9.98 | 0.403 | –
9 | CO[C@H]1C(=O)N2C(C(=O)OC(c3ccccc3)c3ccccc3)=C(C)C3(CC3(c3ccccc3)c3ccccc3)S(=O)(=O)[C@H]12 (stereo partly drawn) [Example 9, Benzhydryl 7α-methoxy-2-spiro (2',2'-diphenyl) cyclopropyl-3-methyl-3-cephem-4-carboxylate-1,1-dioxide] | 0.00363 | > 10 | > 10 | –
10 | CO[C@H]1C(=O)N2C(C(=O)N3CCCC3)=C(C)C3(CC3(c3ccccc3)c3ccccc3)S(=O)(=O)[C@H]12 (stereo partly drawn) [Example 10, 7α-Methoxy-2-spiro (2',2'-diphenyl)cyclopropyl-3-methyl-3-cephem-4-pyrrolidine carboxamide-1,1-dioxide] | 0.0447 | > 40 | > 30.9 | –
11 | CCOC(=O)C1CC12C(C)=C(C(=O)OC(c1ccccc1)c1ccccc1)N1C(=O)[C@H](Br)[C@H]1S2(=O)=O (stereo partly drawn) [Example 13 (1), Benzhydryl 7α-bromo-2-spiro(2'-ethoxycarbonyl)cyclopropyl-3-methyl-3-cephem-4-carboxylate-1,1-dioxide] | 0.0644 | > 40 | 13 | –
12 | CC1=C(C(=O)OC(c2ccccc2)c2ccccc2)N2C(=O)[C@H](Br)[C@H]2S(=O)(=O)C12CC2(C)c1ccccc1 (stereo partly drawn) [Example 13 (2), Benzhydryl 7α-bromo-2-spiro(2'-phenyl-2'-methyl) cyclopropyl-3-methyl-3-cephem-4-carboxylate-1,1-dioxide] | 0.00473 | > 40 | – | 40
